Biological target: T1, human PDE10A2 (Homo sapiens, UniProt Q9Y233)
T1 construct: made in house; host or cells: AD293 cells, transient transfection; cytosolic supernatant of the sonicated lysate used as enzyme
Experiment: PDE10 inhibitory activity, IMAP fluorescence polarization (FP) assay
Assay type: biochemical
Details: apparent inhibition constant, FAM-labeled cAMP 50 nM, room temperature, read-out: PDE10A Ki
Experimental: The activity of the compounds in accordance with the present invention as PDE10 inhibitors may be readily determined without undue experimentation using a fluorescence polarization (FP) methodology that is well known in the art (Huang, W., et al., J. Biomol Screen, 2002, 7: 215).
In a typical experiment the PDE 10 inhibitory activity of the compounds of the present invention was determined in accordance with the following experimental method. PDE10A2 was amplified from human fetal brain cDNA (Clontech, Mountain View, Calif.) using a forward primer corresponding to nucleotides 56-77 of human PDE10A2 (Accession No. AF127480, Genbank Identifier 4894716), containing a Kozak consensus sequence, and a reverse primer corresponding to nucleotides 2406-2413 of human PDE10A2 (Accession No. AF127480, Genbank Identifier 4894716). Amplification with Easy-A polymerase (Stratagene, La Jolla, Calif.) was 95° C. for 2 minutes followed by thirty three cycles of 95° C. for 40 seconds, 55° C. for 30 seconds, and 72° C. for 2 minutes 48 seconds. Final extension was 72° C. for 7 minutes. The PCR product was TA cloned into pcDNA3.2-TOPO (Invitrogen, Carlsbad, Calif.) according to standard protocol. AD293 cells with 70-80% confluency were transiently transfected with human PDE10A2/pcDNA3.2-TOPO using Lipofectamine 2000 according to manufacturer specifications (Invitrogen, Carlsbad, Calif.). Cells were harvested 48 hours post-transfection and lysed by sonication (setting 3, 10×5 sec pulses) in a buffer containing 20 mM HEPES, 1 mM EDTA and protease inhibitor cocktail (Roche). Lysate was collected by centrifugation at 75,000×g for 20 minutes. Supernatant containing the cytoplasmic fraction was used for evaluation of PDE10A2 activity. The fluorescence polarization assay for cyclic nucleotide phosphodiesterases was performed using an IMAP® FP kit supplied by Molecular Devices, Sunnyvale, Calif. (product #R8139). IMAP® technology has been applied previously to phosphodiesterase assays (Huang, W., et al., J. Biomol Screen, 2002, 7: 215). Assays were performed at room temperature in 384-well microtiter plates with an incubation volume of 20.2 μL. Solutions of test compounds were prepared in DMSO and serially diluted with DMSO to yield 8 μL of each of 10 solutions differing by 3-fold in concentration, at 32 serial dilutions per plate. 100% inhibition is determined using a known PDE10 inhibitor, which can be any compound that is present at 5,000 times its Ki value in the assay described as follows, such as papaverine (see Siuciak, et al. Neuropharmacology (2006) 51:386-396; Becker, et al. Behav Brain Res (2008) 186(2):155-60; Threlfell, et al., J Pharmacol Exp Ther (2009) 328(3):785-795), 2-{4-[pyridin-4-yl-1-(2,2,2-trifluoroethyl)-1H-pyrazol-3-yl]phenoxymethyl}quinoline succinic acid or 2-[4-(1-methyl-4-pyridin-4-yl-1H-pyrazol-3-yl)-phenoxymethyl]quinoline succinic acid (see Schmidt, et al. J Pharmacol Exp Ther (2008) 325:681-690; Threlfell, et al., J Pharmacol Exp Ther (2009) 328(3): 785-795), 0% of inhibition is determined by using DMSO (1% final concentrations).
A Labcyte Echo 555 (Labcyte, Sunnyvale, Calif.) is used to dispense […] from each well of the titration plate to the 384 well assay plate. A solution of enzyme (1/1600 dilution from aliquots; sufficient to produce 20% substrate conversion) and a separate solution of FAM-labeled cAMP PDE from Molecular Devices (product #R7506), at a final concentration of 50 nM are made in the assay buffer (10 mM Tris HCl, pH 7.2, 10 mM MgCl2, 0.05% NaN3 0.01% Tween-20, and 1 mM DTT). The enzyme and the substrate are then added to the assay plates in two consecutive additions of 10 μL, and then shaken to mix. The reaction is allowed to proceed at room temperature for 30 minutes. A binding solution is then made from the kit components, comprised of 80% Solution A, 20% Solution B and binding reagent at a volume of 1/600 the total binding solution. […]

T1 sequence (Q9Y233 267-1055): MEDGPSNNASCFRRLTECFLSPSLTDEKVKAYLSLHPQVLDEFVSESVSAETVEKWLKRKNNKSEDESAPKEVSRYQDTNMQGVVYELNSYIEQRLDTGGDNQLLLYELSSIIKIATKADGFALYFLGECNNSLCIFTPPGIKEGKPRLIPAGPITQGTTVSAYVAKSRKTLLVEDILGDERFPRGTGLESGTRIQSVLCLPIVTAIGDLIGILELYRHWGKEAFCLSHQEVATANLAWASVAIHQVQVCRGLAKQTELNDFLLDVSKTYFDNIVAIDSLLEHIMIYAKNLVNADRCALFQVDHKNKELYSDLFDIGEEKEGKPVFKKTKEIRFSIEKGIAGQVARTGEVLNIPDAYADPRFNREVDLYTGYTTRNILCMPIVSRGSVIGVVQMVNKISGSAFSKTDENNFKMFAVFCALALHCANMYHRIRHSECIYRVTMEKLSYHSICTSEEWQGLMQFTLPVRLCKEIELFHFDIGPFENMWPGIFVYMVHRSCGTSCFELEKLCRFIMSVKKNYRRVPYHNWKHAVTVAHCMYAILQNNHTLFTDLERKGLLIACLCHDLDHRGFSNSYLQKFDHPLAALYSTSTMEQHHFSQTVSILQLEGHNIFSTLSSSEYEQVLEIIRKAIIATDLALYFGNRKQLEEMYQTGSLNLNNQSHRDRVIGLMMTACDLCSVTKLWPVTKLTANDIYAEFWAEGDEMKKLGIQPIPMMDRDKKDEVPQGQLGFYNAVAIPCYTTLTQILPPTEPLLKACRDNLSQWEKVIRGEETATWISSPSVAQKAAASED

Row | SMILES | Ki [nM]
1 | COc1ccc(-n2c(CCN3Cc4cccc(OC(C)C)c4C3=O)nc3ccccc3c2=O)cc1 (single isomer, unassigned) [Compound B-6, 3-(4-methoxyphenyl)-2-{2-[1-oxo-7-(propan-2-yloxy)-1,3-dihydro-2H-isoindol-2-yl]ethyl}quinazolin-4(3H)-one] | 2.9
2 | O=C1c2cccc(-c3cscn3)c2CN1CCc1nc2ccccc2cc1C1CC1 [Compound 1-27, 2-[2-(3-cyclopropylquinolin-2-yl)ethyl]-4-(1,3-thiazol-4-yl)-2,3-dihydro-1H-isoindol-1-one] | 0.1
3 | O=C1c2cccc(-n3cccn3)c2CN1CCc1ccc2ccccc2n1 [Compound 1-17, 4-(1H-pyrazol-1-yl)-2-[2-(quinolin-2-yl)ethyl]-2,3-dihydro-1H-isoindol-1-one] | 0.46
4 | COc1ccc(-c2cc3ccccc3nc2CCN2Cc3c(cccc3-c3ncco3)C2=O)cc1 [Compound C-5, 2-{2-[3-(4-methoxyphenyl)quinolin-2-yl]ethyl}-4-(1,3-oxazol-2-yl)-2,3-dihydro-1H-isoindol-1-one] | 0.011
5 | O=C1c2cccc(-n3cccn3)c2CN1CCc1ccc2ncccc2n1 [Compound D-4, 2-[2-(1,5-naphthyridin-2-yl)ethyl]-4-(1H-pyrazol-1-yl)-2,3-dihydro-1H-isoindol-1-one] | 10.9
6 | Cc1ccc([C@@H]2C[C@H]2CN2Cc3c(cccc3-c3ncco3)C2=O)nc1 (single isomer, unassigned) [Compound 1-50, 2-{[(1S,2S) or (1R,2R)-2-(5-methylpyridin-2-yl)cyclopropyl]methyl}-4-(1,3-oxazol-2-yl)-2,3-dihydro-1H-isoindol-1-one] | 0.61
7 | COc1ccc(-n2c(CCN3Cc4c(OC(C)C)cccc4C3=O)nc3ccccc3c2=O)cc1 (single isomer, unassigned) [Compound B-7, 3-(4-methoxyphenyl)-2-{2-[1-oxo-4-(propan-2-yloxy)-1,3-dihydro-2H-isoindol-2-yl]ethyl}quinazolin-4(3H)-one] | 1.2
8 | O=C1c2cccc(-c3ncco3)c2CN1CCc1ccc2c(n1)CCCC2O (centres unmarked) [Compound 1-29, 2-[2-(5-hydroxy-5,6,7,8-tetrahydroquinolin-2-yl)ethyl]-4-(1,3-oxazol-2-yl)-2,3-dihydro-1H-isoindol-1-one] | 4.6
9 | COc1ccc(-n2c(CCN3Cc4c(cccc4-c4ncco4)C3=O)nc3ccccc3c2=O)cc1 [Compound A-4, 3-(4-methoxyphenyl)-2-{2-[4-(1,3-oxazol-2-yl)-1-oxo-1,3-dihydro-2H-isoindol-2-yl]ethyl}quinazolin-4(3H)-one] | 0.19
10 | O=C1c2cccc(-c3nccs3)c2CN1CCc1csc(-c2ccn[nH]2)n1 [Compound 1-40, 2-(2-(2-(1H-pyrazol-5-yl)thiazol-4-yl)ethyl)-4-(thiazol-2-yl)isoindolin-1-one] | 5.8
11 | COc1ccc(-n2c(CCN3Cc4c(Br)cccc4C3=O)nc3ccccc3c2=O)cc1 [Compound A-3, 2-[2-(4-bromo-1-oxo-1,3-dihydro-2H-isoindol-2-yl)ethyl]-3-(4-methoxyphenyl)quinazolin-4(3H)-one] | 16
12 | O=C1c2cccc(-c3cscn3)c2CN1CCc1ccc2c(n1)CCCC2O (centres unmarked) [Compound 1-28, 2-[2-(5-hydroxy-5,6,7,8-tetrahydroquinolin-2-yl)ethyl]-4-(1,3-thiazol-4-yl)-2,3-dihydro-1H-isoindol-1-one] | 1.2
13 | Cc1ccc([C@@H]2C[C@H]2CN2Cc3c(cccc3-n3cccn3)C2=O)nc1 (single isomer, unassigned) [Compound 1-54, 2-{[(1S,2S) or (1R,2R)-2-(5-methylpyridin-2-yl)cyclopropyl]methyl}-4-(1H-pyrazol-1-yl)-2,3-dihydro-1H-isoindol-1-one] | 0.86

Next, values leading:

Row | Ki [nM] | SMILES
14 | 0.14 | O=C1c2cccc(-c3ncco3)c2CN1CC1CC1c1cn2ccccc2n1 (centres unmarked) [Compound M-6, 2-((2-(imidazo[1,2-a]pyridin-2-yl)cyclopropyl)methyl)-4-(oxazol-2-yl)isoindolin-1-one]
15 | 0.31 | O=C1c2cccc(-c3cscn3)c2CN1CCc1csc(-c2ccn[nH]2)n1 [Compound K-4, 2-(2-(2-(1H-pyrazol-5-yl)thiazol-4-yl)ethyl)-4-(thiazol-4-yl)isoindolin-1-one]
16 | 11.2 | Cn1cc(CNc2cc3c(c(-c4ncco4)n2)CN(CCc2cn4ccccc4n2)C3=O)cn1 [Compound J-9]
17 | 2.3 | O=C1c2cccc(-c3ncco3)c2CN1CCc1ccc2c(n1)CCCC2 [Compound F-6, 4-(1,3-oxazol-2-yl)-2-[2-(5,6,7,8-tetrahydroquinolin-2-yl)ethyl]-2,3-dihydro-1H-isoindol-1-one]
18 | 50 | Cn1cc(-c2cccc3c2CN(CCc2ccc4ncccc4n2)C3=O)nn1 [Compound H-2, 4-(1-methyl-1H 1,2,3-triazol-4-yl)-2-[2-(1,5-naphthyridin-2-yl)ethyl]isoindolin-1-one]
19 | 5.7 | CC(CN1Cc2c(cccc2-c2ncco2)C1=O)c1cn2ccccc2n1 (centres unmarked) [Compound E-5, 2-[2-(imidazo[1,2-a]pyridin-2-yl)propyl]-4-(1,3-oxazol-2-yl)-2,3-dihydro-1H-isoindol-1-one]
20 | 17.2 | O=C1c2cc(O)cc(Br)c2CN1CCc1ccc2ncccc2n1 [Compound I-4, 4-Bromo-6-hydroxy-2-[2-(1,5naphthyridin-2-yl)ethyl]isoindolin-1-one]

Reference: patent publication US20130203756A1, “ISOINDOLINE PDE10 INHIBITORS” (priority 2010, published 2013)
